Experiments:
[1] = molecular target: T1, WRN [UniPro: Q14191 (WRN_HUMAN), N500-C946] (Homo sapiens (Human), UniProt Q14191); assay: WRN unwinding assay (FORKF DNA, fluorescence); assay type: biochemical; settings: Table 14
[2] = molecular target: T1, WRN [UniPro: Q14191 (WRN_HUMAN), N500-C946]; assay: WRN ATPase assay (ADP-Glo); assay type: biochemical; settings: WRN enzymatic activity assay

T1 sequence (Q14191 500-946): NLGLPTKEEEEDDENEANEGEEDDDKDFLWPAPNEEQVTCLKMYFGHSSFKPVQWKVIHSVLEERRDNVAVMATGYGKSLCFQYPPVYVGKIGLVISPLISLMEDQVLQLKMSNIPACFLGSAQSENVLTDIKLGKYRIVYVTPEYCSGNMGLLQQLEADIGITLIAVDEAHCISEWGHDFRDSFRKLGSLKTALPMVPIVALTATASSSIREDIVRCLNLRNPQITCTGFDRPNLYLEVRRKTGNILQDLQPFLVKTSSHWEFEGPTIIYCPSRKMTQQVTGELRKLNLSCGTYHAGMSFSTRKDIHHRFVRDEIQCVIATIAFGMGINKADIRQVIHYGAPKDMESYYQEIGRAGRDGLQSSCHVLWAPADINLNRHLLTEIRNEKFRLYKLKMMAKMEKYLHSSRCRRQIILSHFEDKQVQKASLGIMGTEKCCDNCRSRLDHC

SMILES	IC50 [1] [nM]	IC50 [2] [nM]
CCc1c(N2CCN(C(=O)CNC(=O)OC(C)(C)C)CC2)c(=O)n2nc(C3=CCOCC3)nc2n1CC(=O)Nc1ccc(C(F)(F)F)cc1Cl [Example 37, tert-Butyl (2-(4-(4-(2-((2-chloro-4-(trifluoromethyl)phenyl)amino)-2-oxoethyl)-2-(3,6-dihydro-2H-pyran-4-yl)-5-ethyl-7-oxo-4,7-dihydro-[1,2,4]triazolo[1,5-a]pyrimidin-6-yl)piperazin-1-yl)-2-oxoethyl)carbamate]	100 to 1000	< 100
CCc1c(N2CCN(C(=O)CNc3ncnc4cccnc34)CC2)c(=O)n2nc(C3=CCOCC3)nc2n1CC(=O)Nc1ccc(C(F)(F)F)cc1Cl [Example 362, N-(2-Chloro-4-(trifluoromethyl)phenyl)-2-(2-(3,6-dihydro-2H-pyran-4-yl)-5-ethyl-7-oxo-6-(4-(pyrido[3,2-d]pyrimidin-4-ylglycyl)piperazin-1-yl)-[1,2,4]triazolo[1,5-a]pyrimidin-4(7H)-yl)acetamide]	< 100	100 to 1000
CCc1c(N2CCN(C(=O)c3cnn4ccc(C)c4c3O)CC2)c(=O)n2nc(C3=CCOCC3)nc2n1CC(=O)Nc1ccc(C(F)(F)F)cc1Cl [Example 303, N-(2-Chloro-4-(trifluoromethyl)phenyl)-2-(2-(3,6-dihydro-2H-pyran-4-yl)-5-ethyl-6-(4-(4-hydroxy-5-methylpyrrolo[1,2-b]pyridazine-3-carbonyl)piperazin-1-yl)-7-oxo-[1,2,4]triazolo[1,5-a]pyrimidin-4(7H)-yl)acetamide]	< 100	< 100
CCc1c(N2CCN(C(=O)CNC(=O)c3c(Cl)cccc3Cl)CC2)c(=O)n2nc(C3=CCOCC3)nc2n1CC(=O)Nc1ccc(C(F)(F)F)cc1Cl [Example 125, 2,6-Dichloro-N-(2-(4-(4-(2-((2-chloro-4-(trifluoromethyl)phenyl)amino)-2-oxoethyl)-2-(3,6-dihydro-2H-pyran-4-yl)-5-ethyl-7-oxo-4,7-dihydro-[1,2,4]triazolo[1,5-a]pyrimidin-6-yl)piperazin-1-yl)-2-oxoethyl)benzamide]	< 100	100 to 1000
CCc1c(N2CCN(C(=O)CNC(=O)c3ccccc3F)CC2)c(=O)n2nc(C3=CCOCC3)nc2n1CC(=O)Nc1cnc(C(F)(F)F)s1 [Example 157, N-(2-(4-(2-(3,6-Dihydro-2H-pyran-4-yl)-5-ethyl-7-oxo-4-(2-oxo-2-((2-(trifluoromethyl)thiazol-5-yl)amino)ethyl)-4,7-dihydro-[1,2,4]triazolo[1,5-a]pyrimidin-6-yl)piperazin-1-yl)-2-oxoethyl)-2-fluorobenzamide]	< 100	< 100
CCc1c(N2CCN(C(=O)CNC(=O)Cc3cscn3)CC2)c(=O)n2nc(C3=CCOCC3)nc2n1CC(=O)Nc1ccc(C(F)(F)F)cc1Cl [Example 276, N-(2-Chloro-4-(trifluoromethyl)phenyl)-2-(2-(3,6-dihydro-2H-pyran-4-yl)-5-ethyl-7-oxo-6-(4-((2-(thiazol-4-yl)acetyl)glycyl)piperazin-1-yl)-[1,2,4]triazolo[1,5-a]pyrimidin-4(7H)-yl)acetamide]	< 100	< 100
CCc1c(N2CCN(C(=O)CNC(=O)Nc3cc(F)cc(F)c3)CC2)c(=O)n2nc(C3=CCOCC3)nc2n1CC(=O)Nc1ccc(C(F)(F)F)cc1Cl [Example 179, N-(2-Chloro-4-(trifluoromethyl)phenyl)-2-(6-(4-(((3,5-difluorophenyl)carbamoyl)glycyl)piperazin-1-yl)-2-(3,6-dihydro-2H-pyran-4-yl)-5-ethyl-7-oxo-[1,2,4]triazolo[1,5-a]pyrimidin-4(7H)-yl)acetamide]	< 100	< 100
CCc1c(N2CCN(C(=O)CNC(=O)c3ccccc3F)CC2)c(=O)n2nc(N3Cc4ccncc4C3)nc2n1CC(=O)Nc1ccc(C(F)(F)F)cc1Cl [Example 246, N-(2-(4-(4-(2-((2-Chloro-4-(trifluoromethyl)phenyl)amino)-2-oxoethyl)-2-(1,3-dihydro-2H-pyrrolo[3,4-c]pyridin-2-yl)-5-ethyl-7-oxo-4,7-dihydro-[1,2,4]triazolo[1,5-a]pyrimidin-6-yl)piperazin-1-yl)-2-oxoethyl)-2-fluorobenzamide]	< 100	100 to 1000
CCc1c(N2CCN(C(=O)CNC(=O)c3ccccc3)CC2)c(=O)n2nc(C(C)(C)C)nc2n1CC(=O)Nc1ccc(C(F)(F)F)cc1Cl [Example 237, N-(2-(4-(2-(Tert-butyl)-4-(2-((2-chloro-4-(trifluoromethyl)phenyl)amino)-2-oxoethyl)-5-ethyl-7-oxo-4,7-dihydro-[1,2,4]triazolo[1,5-a]pyrimidin-6-yl)piperazin-1-yl)-2-oxoethyl)benzamide]	100 to 1000	100 to 1000
CCc1c(N2CCN(C(=O)C(=O)Nc3nccs3)CC2)c(=O)n2nc(C3=CCOCC3)nc2n1CC(=O)Nc1ccc(C(F)(F)F)cc1Cl [Example 332, 2-(4-(4-(2-((2-Chloro-4-(trifluoromethyl)phenyl)amino)-2-oxoethyl)-2-(3,6-dihydro-2H-pyran-4-yl)-5-ethyl-7-oxo-4,7-dihydro-[1,2,4]triazolo[1,5-a]pyrimidin-6-yl)piperazin-1-yl)-2-oxo-N-(thiazol-2-yl)acetamide]	< 100	< 100
CCc1c(N2CCN(C(=O)CNC(=O)c3ncncc3O)CC2)c(=O)n2nc(C3=CCOCC3)nc2n1CC(=O)Nc1ccc(C(F)(F)F)cc1Cl [Example 364, N-(2-(4-(4-(2-((2-Chloro-4-(trifluoromethyl)phenyl)amino)-2-oxoethyl)-2-(3,6-dihydro-2H-pyran-4-yl)-5-ethyl-7-oxo-4,7-dihydro-[1,2,4]triazolo[1,5-a]pyrimidin-6-yl)piperazin-1-yl)-2-oxoethyl)-5-hydroxypyrimidine-4-carboxamide]	< 100	< 100
CCc1c(N2CCN(C(=O)CNC(=O)c3cccc(O)c3)CC2)c(=O)n2nc(C3=CCOCC3)nc2n1CC(=O)Nc1ccc(C(F)(F)F)cc1Cl [Example 270, N-(2-(4-(4-(2-((2-Chloro-4-(trifluoromethyl)phenyl)amino)-2-oxoethyl)-2-(3,6-dihydro-2H-pyran-4-yl)-5-ethyl-7-oxo-4,7-dihydro-[1,2,4]triazolo[1,5-a]pyrimidin-6-yl)piperazin-1-yl)-2-oxoethyl)-3-hydroxybenzamide]	< 100	< 100
CCc1c(N2CCN(C(=O)c3ccn4nccc4c3O)CC2)c(=O)n2nc(C3=CCOCC3)nc2n1CC(=O)Nc1ccc(C(F)(F)F)cc1Cl [Example 200, N-(2-Chloro-4-(trifluoromethyl)phenyl)-2-(2-(3,6-dihydro-2H-pyran-4-yl)-5-ethyl-6-(4-(4-hydroxypyrazolo[1,5-a]pyridine-5-carbonyl)piperazin-1-yl)-7-oxo-[1,2,4]triazolo[1,5-a]pyrimidin-4(7H)-yl)acetamide]	< 100	< 100
CCc1c(N2CCN(C(=O)c3nc4ccccc4cc3N)CC2)c(=O)n2nc(C3=CCOCC3)nc2n1CC(=O)Nc1ccc(C(F)(F)F)cc1Cl [Example 307, 2-(6-(4-(3-Aminoquinoline-2-carbonyl)piperazin-1-yl)-2-(3,6-dihydro-2H-pyran-4-yl)-5-ethyl-7-oxo-[1,2,4]triazolo[1,5-a]pyrimidin-4(7H)-yl)-N-(2-chloro-4 (trifluoromethyl)phenyl)acetamide]	< 100	100 to 1000
CCc1c(N2CCN(C(=O)c3n[nH]cc(C)c3=O)CC2)c(=O)n2nc(C3=CCOCC3)nc2n1CC(=O)Nc1ccc(C(F)(F)F)cc1Cl [Example 76, N-(2-Chloro-4-(trifluoromethyl)phenyl)-2-(2-(3,6-dihydro-2H-pyran-4-yl)-5-ethyl-6-(4-(5-methyl-4-oxo-1,4-dihydropyridazine-3-carbonyl)piperazin-1-yl)-7-oxo-[1,2,4]triazolo[1,5-a]pyrimidin-4(7H)-yl)acetamide]	< 100	100 to 1000
CCc1c(N2CCN(C(=O)c3sc4cnccc4c3N)CC2)c(=O)n2nc(C3=CCOCC3)nc2n1CC(=O)Nc1ccc(C(F)(F)F)cc1Cl [Example 6, 2-(6-(4-(3-Aminothieno[2,3-c]pyridine-2-carbonyl)piperazin-1-yl)-2-(3,6-dihydro-2H-pyran-4-yl)-5-ethyl-7-oxo-[1,2,4]triazolo[1,5-a]pyrimidin-4(7H)-yl)-N-(2-chloro-4-(trifluoromethyl)phenyl)acetamide]	< 100	100 to 1000
CCc1c(N2CCN(C(=O)CNC(=O)c3ccco3)CC2)c(=O)n2nc(C3=CCOCC3)nc2n1CC(=O)Nc1ccc(C(F)(F)F)cc1Cl [Example 385, N-(2-(4-(4-(2-((2-Chloro-4-(trifluoromethyl)phenyl)amino)-2-oxoethyl)-2-(3,6-dihydro-2H-pyran-4-yl)-5-ethyl-7-oxo-4,7-dihydro-[1,2,4]triazolo[1,5-a]pyrimidin-6-yl)piperazin-1-yl)-2-oxoethyl)furan-2-carboxamide]	< 100	< 100
CCc1c(N2CCN(C(=O)CNC(=O)c3ccccc3F)CC2)c(=O)n2nc(N3CC(F)(F)C3)nc2n1CC(=O)Nc1ccc(C(F)(F)F)cc1Cl [Example 244, N-(2-(4-(4-(2-((2-Chloro-4-(trifluoromethyl)phenyl)amino)-2-oxoethyl)-2-(3,3-difluoroazetidin-1-yl)-5-ethyl-7-oxo-4,7-dihydro-[1,2,4]triazolo[1,5-a]pyrimidin-6-yl)piperazin-1-yl)-2-oxoethyl)-2-fluorobenzamide]	100 to 1000	< 100
CCc1c(N2CCN(C(=O)c3cnc4c(ccn4C)c3O)CC2)c(=O)n2nc(C3=CCOCC3)nc2n1CC(=O)Nc1ccc(C(F)(F)F)cc1Cl [Example 77, N-(2-Chloro-4-(trifluoromethyl)phenyl)-2-(2-(3,6-dihydro-2H-pyran-4-yl)-5-ethyl-6-(4-(4-hydroxy-1-methyl-1H-pyrrolo[2,3-b]pyridine-5-carbonyl)piperazin-1-yl)-7-oxo-[1,2,4]triazolo[1,5-a]pyrimidin-4(7H)-yl)acetamide]	< 100	< 100
